Data from ChEMBL document CHEMBL4610086, “N-Acylethanolamine Acid Amidase (NAAA): Structure, Function, and Inhibition” (J Med Chem, 2020).
One block for each compound: values may come before it.

Legend:
[1] = biological target: T1, N-acylethanolamine-hydrolyzing acid amidase (Homo sapiens, UniProt Q02083); assay: Inhibition of NAAA (unknown origin)
T1 sequence (Q02083 whole entry): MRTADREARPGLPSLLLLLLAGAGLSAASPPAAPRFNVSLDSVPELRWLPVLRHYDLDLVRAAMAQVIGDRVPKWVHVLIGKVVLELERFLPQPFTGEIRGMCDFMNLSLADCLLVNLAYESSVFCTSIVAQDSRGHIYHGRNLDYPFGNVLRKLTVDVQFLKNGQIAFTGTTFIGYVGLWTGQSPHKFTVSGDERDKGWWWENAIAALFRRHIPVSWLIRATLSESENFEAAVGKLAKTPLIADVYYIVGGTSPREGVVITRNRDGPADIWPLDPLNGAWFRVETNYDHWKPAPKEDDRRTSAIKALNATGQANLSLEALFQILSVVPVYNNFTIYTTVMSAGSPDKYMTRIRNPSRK

[2] = biological target: T1, N-acylethanolamine-hydrolyzing acid amidase; assay: Inhibition of human NAAA
[3] = biological target: T1, N-acylethanolamine-hydrolyzing acid amidase; assay: Inhibition of human NAAA expressed in HEK293 cell membranes using [3H]-N-palmitoylethanolamine as substrate after 30 mins by liquid scintillation counting assay
[4] = Blood brain barrier permeability in human; type: ADME; settings: read-out: BPR

- IC50 [1]: 3.1 µM
Structure (SMILES): O=C(CCc1ccc(-c2ccccc2)cc1)N1CCCC1

Structure (SMILES): CCCCc1ccc(O[C@@H]2C[C@H]3CC[C@@H](C2)N3CS(=O)(=O)c2c(C)n[nH]c2C)cc1
- IC50 [2]: 0.023 µM

- IC50 [3]: > 30 µM
Structure (SMILES): CCCCCCCCCCCCCCCC(=O)OC1CCCC1 [CYCLOPENTYL PALMITATE]

- Kp [4]: 0.2
Structure (SMILES): CCS(=O)(=O)c1ccccc1C(=O)N1CCN(c2nc3ccc(F)cc3s2)C[C@@H]1C
